This note sets out measurements from US5286729A, “Angiotensin II receptor blocking 2,3,6 substituted quinazolinones” (American Cyanamid Company, priority 1993, dated 1994).

In the assay the target is T1, Angiotensin II Receptor (Bos taurus, UniProt P25104).
T1 construct: The brownish tissue forming the adrenal cortex is scraped off and finely minced with scissors before homogenization; from tissue; host or cells: beef adrenal cortex, microsomal (100,000 x g) membranes; adrenals from a local slaughter house (Maxwell-Cohen)
T1 sequence (P25104 1-359): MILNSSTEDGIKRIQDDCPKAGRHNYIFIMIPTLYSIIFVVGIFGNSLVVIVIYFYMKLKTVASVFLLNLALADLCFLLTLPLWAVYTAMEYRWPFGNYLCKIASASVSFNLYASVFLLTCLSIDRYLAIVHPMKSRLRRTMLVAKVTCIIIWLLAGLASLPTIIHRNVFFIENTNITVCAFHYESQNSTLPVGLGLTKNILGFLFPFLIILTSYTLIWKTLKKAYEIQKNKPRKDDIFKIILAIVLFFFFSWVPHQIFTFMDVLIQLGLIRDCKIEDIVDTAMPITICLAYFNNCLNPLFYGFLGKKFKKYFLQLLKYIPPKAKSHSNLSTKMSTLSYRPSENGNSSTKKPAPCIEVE
Briefly: Receptor Binding Assay, binding of [125I](Sar1,Ile8)AngII to beef adrenal cortex membranes. Particulars: radioligand; non-specific binding with 1.0 uM unlabeled (Sar1,Ile8)AngII. An excerpt:
Beef adrenals are obtained from a local slaughter house (Maxwell-Cohen). [^125 I](Sar^1,Ile^8)AngII, S.A. 2200 Ci/mmole, is purchased from Dupont (NEN®, Boston, Mass.).
Approximately sixteen (16) to twenty (20) beef adrenal glands are processed as follows: fresh adrenal glands received on crushed ice are cleaned of fatty tissues and the tough membranes encapsulating the glands are removed and discarded. The brownish tissue forming the adrenal cortex is scraped off and finely minced with scissors before homogenization. Care is taken to avoid contamination with medullary tissue during dissection. The scraped cortices are suspended in twenty volumes of an ice-cold buffer medium consisting of 10 mM Tris.HCl (pH 7.4 at 22° C.) and containing 1.0 mM EDTA and 0.2M sucrose. Unless otherwise indicated, all subsequent operations are done at 4° C. […] The homogenate is centrifuged first at low speed (3,000×g) for 10 min. […] The pelleted membrane is reconstituted in 50.0 mM Tris.HCl buffer containing 0.1 mM of phenylmethylsulfonyl fluoride (PMSF) to give approximately a protein concentration of 2.5 mg per ml of tissue suspension. The membrane preparation is finally aliquoted in 1.0 ml volumes and stored at -70° C. until use in the binding assays. […]

As to “[^125 I](Sar^1, Ile^8) AngII [reference compound]”, the Specific binding entry was “greater than 90%”.
